According to US20250313528A1, “NOVEL COMPOUND AND PHARMACEUTICAL COMPOSITION FOR PREVENTING OR TREATING PULMONARY FIBROSIS COMPRISING SAME AS ACTIVE INGREDIENT” (GIL MEDICAL CENTER, priority 2022, published 2025):

Tested on: fibronectin and α-SMA
Assay: Western blotting of fibrosis-related proteins in TGF-β1-induced DHLF-IPF cells
Type: cell-based, human
Settings: TGF-β1 1 ng/ml, 10 μM, FIG. 4b
Method: Specifically, to extract fibronectin and α-SMA proteins, the cells were washed once with cold PBS and then RIPA buffer (150 mM NaCl, 0.5% Triton X-100, 50 mM Tris-HCl, pH 7.4, 25 mM NaF, 20 mM EGTA), which was added with a protease inhibitor cocktail, was added thereto to lyse the cells. Then, the proteins were quantified using a BCA protein assay kit. All protein samples were subjected to electrophoresis at 10 μg on 8% to 10% PAGE gels and then transferred to 0.2 μm PVDF membranes (EMD Millipore, MA, USA). The membranes to which the protein was transferred were blocked with 5% BSA or 5% skim milk for 1 hour, and then primary antibodies were added thereto and incubated overnight at 4° C. The following day, the membranes were washed three times with PBST, and then HRP-conjugated secondary antibodies were added and reacted at room temperature for 1 hour. The PVDF membranes prepared through such procedures were smeared with ECL (Luminata™ Crescendo, EMD Millipore) and exposed to a fluorescence reader to confirm the level of protein expression.
To compare the changes in fibrosis-related protein expression by treating normal MRC-5 and diseased DHLF-IPF cell lines induced with pulmonary fibrosis by TGF-β1 with SFN and the two candidate compounds, Western blotting was performed.
The specific experimental methods are the same as in Example 2. TGF-β1 was treated at 1 ng/ml to induce fibrosis, and sulforaphane and the two compounds each were treated at a concentration of 10 μM.

| Structure (SMILES) | expression levels of fibronectin and α-SMA protein |
| --- | --- |
| CCOC(=O)C(CSC(=S)NCCCC[S+](C)[O-])NC(C)=O (centres unmarked) [Compound 1] | significantly reducing the expression levels compared to sulforaphane |
| C=CCOC(=O)C(CSC(=S)NCCCC[S+](C)[O-])NC(C)=O (centres unmarked) [Compound 2] | significantly reducing the expression levels compared to sulforaphane |
